Experimental data taken from paper PMC6768323, “Adverse Maternal, Fetal, and Postnatal Effects of Hexafluoropropylene Oxide Dimer Acid (GenX) from Oral Gestational Exposure in Sprague-Dawley Rats” (Environmental Health Perspectives, 2019).
Several values for one entry are separate records, joined by “and”; a condition that tells them apart may be missing. Equal entries are not always repeated.

Legend:
[1] = HFPO-DA concentrations in maternal serum and fetal plasma; assay type: in vivo, Sprague-Dawley rats
Procedure: Maternal sera from all three blocks and fetal plasma from the third block were analyzed for HFPO-DA concentrations similar to previously reported methods ([McCord et al. 2018]; [Reiner et al. 2009]; [Rushing et al. 2017]). Serum or plasma samples ( 25μL ) were denatured using 0.1M formic acid (FA) followed by a cold ( −20°C ) acetonitrile (ACN) protein crash. The volumes of FA and ACN varied based on the anticipated concentrations of HFPO-DA in the sample ( 0–100 ng HFPO-DA/mL=100μL FA +0.5mL ACN; 100–5,000 ng HFPO-DA/mL=100μL FA +1.0mL ACN; 5,000–200,000 ng HFPO-DA/mL=1.0mL FA added, then 100-μL subsamples removed and crashed with 900μL cold ACN). Samples were vortex mixed after FA and ACN additions then centrifuged at 10,000×g for 5 min and the supernatant removed. Sample extracts were separated using a Waters ACQUITY ultra performance liquid chromatograph (UPLC) (Waters Corporation) fitted with a Waters ACQUITY UPLC BEH C18 column ( 2.1mm×50mm; 1.7μm; 130 Å ). Detection was performed using a Waters Quattro Premier XE tandem quadrupole mass spectrometer in negative ionization mode. A stable isotope of HFPO-DA ( C313 , Wellington Laboratories) was used as an internal standard for quantitation. Separate calibration curves were prepared for the ranges 0–100 ng/mL , 100–5,000 ng/mL , and 5,000–200,000 ng/mL to account for expected concentration differences between control, offspring (fetus/pup), and dam concentrations across the dose range tested.
Serum HFPO-DA concentrations in the mother and the fetus were analyzed as a function of oral dose administered to the mother. We utilized nonlinear regression (exponential one-phase association) to describe the increase and saturation of serum HFPO-DA concentrations across the full oral dose range ( 1–500mg/kg ) for maternal serum. Fetal plasma HFPO-DA concentrations were only analyzed in the low-dose range ( 1–30mg/kg ), which was better described using a linear uptake model. We compared the slopes of the low-dose linear regressions for maternal serum and fetal plasma HFPO-DA concentrations using GraphPad Prism.

[2] = system: pregnant Sprague-Dawley rats; assay: Maternal serum thyroid hormones and lipid panel; assay type: in vivo
Procedure: Maternal serum samples from the first two blocks were analyzed for thyroid hormones and a standard lipid panel. Total triiodothyronine ( T3 ) and thyroxine ( T4 ) were quantified by radioimmunoassay (RIA) according to manufacturer specifications (IVD Technologies). […] Thyroid hormone RIA values were considered below detection when specific binding ( B/B0 ) was ≥90% ( 0.2 ng/mL for T3 and 2 ng/mL for T4 ) ([Sui and Gilbert 2003]). Serum total cholesterol, high-density lipoproteins (HDL), low-density lipoproteins (LDL), and triglycerides were quantified using a Beckman Coulter AU480 clinical chemistry analyzer (Beckman Coulter, Inc.) as per manufacturer’s protocol. All reagents were obtained from the instrument manufacturer except for the LDL assay, which was obtained from Diazyme Laboratories.

O=C(O)C(F)(OC(F)(F)C(F)(F)C(F)(F)F)C(F)(F)F (stereo not drawn) [HFPO-DA, Hexafluoropropylene oxide dimer acid]
fetal plasma HFPO-DA slope per 1-mg/kg increase in oral maternal dose ([1]; 1-30 mg/kg, linear regression): 0.12 µg/mL and 0.12 ± 0.0094 µg/mL | fetal plasma y-intercept ([1]; 1-30 mg/kg, linear regression): 0.17±0.13 | maternal serum HFPO-DA slope per 1-mg/kg increase in oral maternal dose ([1]; 1-30 mg/kg, linear regression): 0.46 µg/mL and 0.46 ± 0.06 µg/mL | maternal serum y-intercept ([1]; 1-30 mg/kg, linear regression): 0.032±0.80 | plateau of maternal serum HFPO-DA, exponential one-phase association ([1]; 1-500 mg/kg): 112 ± 15 µg/mL | serum total T3 in the top two dose levels ([2]; 250 and 500 mg/kg/d): < 0.2 ng/mL | Dam serum HDL ([2]; GD18, 1-500 mg/kg/d): 36.3 ± 3.7 mg/dL and 36.0 ± 2.5 mg/dL and 33.0 ± 3.6 mg/dL and 37.0 ± 1.2 mg/dL and 36.7 ± 4.7 mg/dL and 28.7 ± 3.2 mg/dL and 19.3 ± 2.7 mg/dL | Dam serum LDL ([2]; GD18, 1-500 mg/kg/d): 14.7 ± 0.9 mg/dL and 14.0 ± 1.2 mg/dL and 12.7 ± 0.9 mg/dL and 12.3 ± 1.9 mg/dL and 13.3 ± 1.9 mg/dL and 19.0 ± 3.2 mg/dL and 14.7 ± 0.3 mg/dL and 14.0 ± 0.6 mg/dL | dose with lower maternal serum thyroid hormone and lipid profiles ([2]; oral GD14-18): ≥ 30 mg/kg | dose with significantly lower serum total T3 ([2]; rat, in vivo): ≥ 30 mg/kg | dose with significantly lower serum triglycerides ([2]; rat, in vivo): 500 mg/kg | dose with significantly lower total T4 and LDL ([2]; rat, in vivo): ≥ 125 mg/kg
